Experimental data published in patent US20260285850A1, “SUBSTITUTED OXAZOLIDINONES AND IMIDAZOLINONES AS HERBICIDES” (FMC CORPORATION, priority 2023, published 2026).

What was measured:
Format in all cases: in vivo
corn (Zea mays) [1] = experiment: Test A postemergence application, visual injury rating 0-100; settings: Postemergence
Method in brief: (§1)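 Visual injury, scored 0-100 (100 = complete control) against untreated plants, 10 days after greenhouse treatment. Test chemicals in surfactant-containing non-phytotoxic solvent were applied in loam soil and sand, as a preemergence soil spray on seeds or postemergence to plants at the one- to two-leaf stage.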

[2] = tested on: palmer (palmer amaranth, palmer pigweed, Amaranthus palmeri); experiment: as above; settings: Postemergence
Method in brief: as §1

[3] = tested on: galium (catchweed bedstraw, Galium aparine); experiment: as above; settings: Postemergence
Method in brief: as §1

[4] = tested on: ryegrass, Italian (italian ryegrass, Lolium multiflorum); experiment: as above; settings: Postemergence
Method in brief: as §1

kochia (Bassia scoparia) [5] = experiment: as above; settings: Postemergence
Method in brief: as §1

soybean (Glycine max) [6] = experiment: as above; settings: Postemergence
Method in brief: as §1

[7] = tested on: wheat (Triticum aestivum); experiment: as above; settings: Postemergence
Method in brief: as §1

[8] = tested on: oat, wild (wild oat, Avena fatua); experiment: as above; settings: Postemergence
Method in brief: as §1

[9] = tested on: blackgrass (Alopecurus myosuroides); experiment: as above; settings: Postemergence
Method in brief: as §1

[10] = tested on: ragweed (common ragweed, Ambrosia artemisiifolia); experiment: as above; settings: Postemergence
Method in brief: as §1

[11] = tested on: horseweed (Erigeron canadensis); experiment: as above; settings: Postemergence
Method in brief: as §1

[12] = tested on: barnyardgrass (Echinochloa crus-galli); experiment: as above; settings: Postemergence
Method in brief: as §1

[13] = tested on: barnyardgrass (Echinochloa crusgalli); experiment: Test B flooded paddy test, visual plant response rating 0-100; settings: 250 g ai/ha, Flood, applied to paddy water, evaluated after 13 days
Method in brief: (§2)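 Each species was raised to two leaves before flooding to a 3 cm depth and dosing the water with compound. Injury was assessed by eye after 13 days under greenhouse conditions.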

[14] = tested on: sedge, umbrella (small-flower umbrella sedge, Cyperus difformis); experiment: as above; settings: 250 g ai/ha, Flood, applied to paddy water, evaluated after 13 days
Method in brief: as §2

[15] = tested on: ducksalad (Heteranthera limosa); experiment: as above; settings: 250 g ai/ha, Flood, applied to paddy water, evaluated after 13 days
Method in brief: as §2

rice (Oryza sativa) = experiment: as above; settings: 250 g ai/ha, Flood, applied to paddy water, evaluated after 13 days
Method in brief: as §2

corn (Zea mays) [16] = experiment: Test A preemergence soil spray, visual injury rating 0-100; settings: 10 days, 0 = no effect, 100 = complete control; for Corn plant response rating (0-100): 31 g ai/ha; for Corn plant response rating (0 to 100 scale): 125 g ai/ha
Method in brief: as §1

[17] = tested on: palmer (palmer amaranth, palmer pigweed, Amaranthus palmeri); experiment: as above; settings: 10 days, 0 = no effect, 100 = complete control; for Amaranth, Palmer plant response rating (0-100): 31 g ai/ha; for Amaranth, Palmer plant response rating (0 to 100 scale): 125 g ai/ha
Method in brief: as §1

[18] = tested on: ryegrass, Italian (italian ryegrass, Lolium multiflorum); experiment: as above; settings: 10 days, 0 = no effect, 100 = complete control; for Ryegrass, Italian plant response rating (0-100): 31 g ai/ha; for Ryegrass, Italian plant response rating (0 to 100 scale): 125 g ai/ha
Method in brief: as §1

kochia (Bassia scoparia) [19] = experiment: as above; settings: 10 days, 0 = no effect, 100 = complete control; for Kochia plant response rating (0-100): 31 g ai/ha; for Kochia plant response rating (0 to 100 scale): 125 g ai/ha
Method in brief: as §1

soybean (Glycine max) [20] = experiment: as above; settings: 10 days, 0 = no effect, 100 = complete control; for Soybean plant response rating (0-100): 31 g ai/ha; for Soybean plant response rating (0 to 100 scale): 125 g ai/ha
Method in brief: as §1

[21] = tested on: wheat (Triticum aestivum); experiment: as above; settings: 10 days, 0 = no effect, 100 = complete control; for Wheat plant response rating (0-100): 31 g ai/ha; for Wheat plant response rating (0 to 100 scale): 125 g ai/ha
Method in brief: as §1

[22] = tested on: oat, wild (wild oat, Avena fatua); experiment: as above; settings: 10 days, 0 = no effect, 100 = complete control; for Oat, Wild plant response rating (0-100): 31 g ai/ha; for Oat, Wild plant response rating (0 to 100 scale): 125 g ai/ha
Method in brief: as §1

[23] = tested on: blackgrass (Alopecurus myosuroides); experiment: as above; settings: 10 days, 0 = no effect, 100 = complete control; for Blackgrass plant response rating (0-100): 31 g ai/ha; for Blackgrass plant response rating (0 to 100 scale): 125 g ai/ha
Method in brief: as §1

[24] = tested on: ragweed (common ragweed, Ambrosia artemisiifolia); experiment: as above; settings: 10 days, 0 = no effect, 100 = complete control; for Ragweed plant response rating (0-100): 31 g ai/ha; for Ragweed plant response rating (0 to 100 scale): 125 g ai/ha
Method in brief: as §1

[25] = tested on: barnyardgrass (Echinochloa crus-galli); experiment: as above; settings: 10 days, 0 = no effect, 100 = complete control; for Barnyardgrass plant response rating (0-100): 31 g ai/ha; for Barnyardgrass plant response rating (0 to 100 scale): 125 g ai/ha
Method in brief: as §1

[26] = 31 g ai/ha, greenhouse 10 days, 0 no effect, 100 complete control
[27] = 125 g ai/ha, 10 days, 0 is no effect, 100 is complete control

In the case of `CC1(C(=O)NC2C=CC(C(=O)ON=Cc3ccccc3)C2)CN(c2cc(F)cc(F)c2)C(=O)O1` (stereo not drawn) [Compound 68], the “Corn plant response rating (0 to 100 scale)” value (corn (Zea mays) [1]; [26]) is reported as 80, the “Corn plant response rating (0 to 100 scale)” value (corn (Zea mays) [1]; [27]) is reported as 100 and the “Amaranth, Palmer / Pigweed, Palmer plant response rating (0 to 100 scale)” value (“Amaranth, Palmer / Pigweed” below) [2, 26] is reported as 90. For the same compound, the “Amaranth, Palmer / Pigweed” value [2, 27] was 90, the “Galium plant response rating (0 to 100 scale)” value (“Galium plant response rating” below) [3, 26] was 90 and the “Galium plant response rating” value [3, 27] was 90. For the same compound, the “Ryegrass, Italian plant response rating (0 to 100 scale)” value (“Ryegrass … (0 to 100 scale)” below) [4, 26] was 90, the “Ryegrass … (0 to 100 scale)” value [4, 27] was 100 and the “Kochia plant response rating (0 to 100 scale)” value (kochia (Bassia scoparia) [5]; [26]) was 80. The “Kochia plant response rating (0 to 100 scale)” value (kochia (Bassia scoparia) [5]; [27]) was 90, the “Soybean plant response rating (0 to 100 scale)” value (soybean (Glycine max) [6]; [26]) was 90 and the “Soybean plant response rating (0 to 100 scale)” value (soybean (Glycine max) [6]; [27]) was 100. The “Wheat plant response rating (0 to 100 scale)” value [7, 26] was 80, the “Wheat plant response rating (0 to 100 scale)” value [7, 27] was 90 and the “Oat, Wild plant response rating (0 to 100 scale)” value (shortened to “Oat … (0 to 100 scale)”) [8, 26] was 30. The “Oat … (0 to 100 scale)” value [8, 27] was 90, the “Blackgrass plant response rating (0 to 100 scale)” value [9, 26] was 70 and the “Blackgrass plant response rating (0 to 100 scale)” value [9, 27] was 90. For the same compound, the “Ragweed plant response rating (0 to 100 scale)” value [10, 26] was 0, the “Ragweed plant response rating (0 to 100 scale)” value [10, 27] was 80 and the “Horseweed plant response rating (0 to 100 scale)” value (shortened to “Horseweed plant response rating”) [11, 26] was 50. The “Horseweed plant response rating” value [11, 27] was 90, the “Barnyardgrass plant response rating (0 to 100 scale)” value [12, 26] was 90 and the “Barnyardgrass plant response rating (0 to 100 scale)” value [12, 27] was 90. For the same compound, the “Plant response rating, Barnyardgrass (0 to 100 scale, 0 is no effect and 100 is complete control)” value [13] was 85, the “Plant response rating, Sedge, Umbrella (0 to 100 scale, 0 is no effect and 100 is complete control)” value [14] was 98 and the “Plant response rating, Ducksalad (0 to 100 scale, 0 is no effect and 100 is complete control)” value [15] was 95. For the same compound, the “Plant response rating, Rice (0 to 100 scale, 0 is no effect and 100 is complete control)” value (rice (Oryza sativa)) was 40, the “Corn plant response rating (0-100)” value (corn (Zea mays) [16]) was 0 and the “Corn plant response rating (0 to 100 scale)” value (corn (Zea mays) [16]) was 80. For the same compound, the “Amaranth, Palmer plant response rating (0-100)” value [17] was 100, the “Amaranth, Palmer plant response rating (0 to 100 scale)” value [17] was 100 and the “Ryegrass, Italian plant response rating (0-100)” value [18] was 70. The “Ryegrass … (0 to 100 scale)” value [18] was 80, the “Kochia plant response rating (0-100)” value (kochia (Bassia scoparia) [19]) was 80 and the “Kochia plant response rating (0 to 100 scale)” value (kochia (Bassia scoparia) [19]) was 90. For the same compound, the “Soybean plant response rating (0-100)” value (soybean (Glycine max) [20]) was 0, the “Soybean plant response rating (0 to 100 scale)” value (soybean (Glycine max) [20]) was 70 and the “Wheat plant response rating (0-100)” value [21] was 80. For the same compound, the “Wheat plant response rating (0 to 100 scale)” value [21] was 90, the “Oat, Wild plant response rating (0-100)” value [22] was 60 and the “Oat … (0 to 100 scale)” value [22] was 90. The “Blackgrass plant response rating (0-100)” value [23] was 50, the “Blackgrass plant response rating (0 to 100 scale)” value [23] was 70 and the “Ragweed plant response rating (0-100)” value [24] was 0. For the same compound, the “Ragweed plant response rating (0 to 100 scale)” value [24] was 20, the “Barnyardgrass plant response rating (0-100)” value [25] was 90 and the “Barnyardgrass plant response rating (0 to 100 scale)” value [25] was 100.
`CC1(C(=O)NC2CC=C(C(=O)O)C2)CN(c2cc(Cl)cc(Cl)c2)C(=O)O1` (stereo not drawn) [Compound 72] was tested, and the “Corn plant response rating (0 to 100 scale)” value (corn (Zea mays) [1]; [26]) was 100, the “Corn plant response rating (0 to 100 scale)” value (corn (Zea mays) [1]; [27]) was 100 and the “Amaranth, Palmer / Pigweed” value [2, 26] was 90. The “Amaranth, Palmer / Pigweed” value [2, 27] was 90, the “Galium plant response rating” value [3, 26] was 80 and the “Galium plant response rating” value [3, 27] was 80. For the same compound, the “Ryegrass … (0 to 100 scale)” value [4, 26] was 70, the “Ryegrass … (0 to 100 scale)” value [4, 27] was 70 and the “Kochia plant response rating (0 to 100 scale)” value (kochia (Bassia scoparia) [5]; [26]) was 80. The “Kochia plant response rating (0 to 100 scale)” value (kochia (Bassia scoparia) [5]; [27]) was 80, the “Soybean plant response rating (0 to 100 scale)” value (soybean (Glycine max) [6]; [26]) was 80 and the “Soybean plant response rating (0 to 100 scale)” value (soybean (Glycine max) [6]; [27]) was 90. The “Wheat plant response rating (0 to 100 scale)” value [7, 26] was 80, the “Wheat plant response rating (0 to 100 scale)” value [7, 27] was 90 and the “Oat … (0 to 100 scale)” value [8, 26] was 40. For the same compound, the “Oat … (0 to 100 scale)” value [8, 27] was 60, the “Blackgrass plant response rating (0 to 100 scale)” value [9, 26] was 90 and the “Blackgrass plant response rating (0 to 100 scale)” value [9, 27] was 90. For the same compound, the “Ragweed plant response rating (0 to 100 scale)” value [10, 26] was 50, the “Ragweed plant response rating (0 to 100 scale)” value [10, 27] was 70 and the “Horseweed plant response rating” value [11, 26] was 70. The “Horseweed plant response rating” value [11, 27] was 80, the “Barnyardgrass plant response rating (0 to 100 scale)” value [12, 26] was 90 and the “Barnyardgrass plant response rating (0 to 100 scale)” value [12, 27] was 90. The “Plant response rating, Barnyardgrass (0 to 100 scale, 0 is no effect and 100 is complete control)” value [13] was 55, the “Plant response rating, Sedge, Umbrella (0 to 100 scale, 0 is no effect and 100 is complete control)” value [14] was 98 and the “Plant response rating, Ducksalad (0 to 100 scale, 0 is no effect and 100 is complete control)” value [15] was 75. For the same compound, the “Plant response rating, Rice (0 to 100 scale, 0 is no effect and 100 is complete control)” value (rice (Oryza sativa)) was 85, the “Corn plant response rating (0-100)” value (corn (Zea mays) [16]) was 0 and the “Corn plant response rating (0 to 100 scale)” value (corn (Zea mays) [16]) was 60. For the same compound, the “Amaranth, Palmer plant response rating (0-100)” value [17] was 90, the “Amaranth, Palmer plant response rating (0 to 100 scale)” value [17] was 100 and the “Ryegrass, Italian plant response rating (0-100)” value [18] was 40. The “Ryegrass … (0 to 100 scale)” value [18] was 80, the “Kochia plant response rating (0-100)” value (kochia (Bassia scoparia) [19]) was 80 and the “Kochia plant response rating (0 to 100 scale)” value (kochia (Bassia scoparia) [19]) was 90. For the same compound, the “Soybean plant response rating (0-100)” value (soybean (Glycine max) [20]) was 0, the “Soybean plant response rating (0 to 100 scale)” value (soybean (Glycine max) [20]) was 80 and the “Wheat plant response rating (0-100)” value [21] was 40. The “Wheat plant response rating (0 to 100 scale)” value [21] was 80, the “Oat, Wild plant response rating (0-100)” value [22] was 10 and the “Oat … (0 to 100 scale)” value [22] was 40. The “Blackgrass plant response rating (0-100)” value [23] was 0, the “Blackgrass plant response rating (0 to 100 scale)” value [23] was 30 and the “Ragweed plant response rating (0-100)” value [24] was 0. For the same compound, the “Ragweed plant response rating (0 to 100 scale)” value [24] was 40, the “Barnyardgrass plant response rating (0-100)” value [25] was 60 and the “Barnyardgrass plant response rating (0 to 100 scale)” value [25] was 90.
